EC50 and IC50 data for 15 molecules are collected here from patent publication US11028087B2, “2,6-disubstituted-9-cyclopentyl-9H-purines, use thereof as medicaments, and pharmaceutical compositions” (UNIVERZITA PALACKEHO V OLOMOUCI, priority 2017, dated 2021).

Molecules are shown by their SMILES.

The subject of assay [1] is EOL-1 (eosinophilic leukaemia, carrying the fusion FIP1L1-PDGFRA). The experiment in a line: Calcein AM cytotoxicity assay. The format is cell-based. As to conditions: Homo sapiens, EOL1, 72 h; EOL-1; Calcein AM, three days; read-out: EC50 values (μM) EOL-1. In outline:
(§1)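 3-day compound exposure, triplicates, various concs; cells seeded the day before. Read-out: Calcein AM (1 μg/ml final), 1 h, fluorescence ∝ viable cells. Culture 37° C, 5% CO2.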

Assay [2] deals with K562. Briefly: Calcein AM cytotoxicity assay. The format is cell-based. As to conditions: Homo sapiens, 72 h; K562; Calcein AM, three days; read-out: EC50 values (μM) K562. In outline: as §1
In assay [3] the test system is MCF-7. The experiment in a line: Calcein AM cytotoxicity assay. The format is cell-based. Conditions: Homo sapiens, MCF7, 72 h; MCF-7; Calcein AM, three days; read-out: EC50 values (μM) MCF-7. The gist of the method:
as §1

Assay [4] has as its system MOLM-13 (acute myeloid leukemia, FLT3-ITD positive). Briefly: Calcein AM cytotoxicity assay. As to conditions: Homo sapiens, 72 h; MOLM-13; Calcein AM, three days; read-out: EC50 values (μM) MOLM-13. In kind it is cell-based. In outline:
as §1

The subject of assay [5] is MV4-11 (acute myeloid leukemia, FLT3-ITD positive). The experiment in a line: Calcein AM cytotoxicity assay. As to conditions: Homo sapiens, 72 h; MV4-11; Calcein AM, three days after drug addition; read-out: EC50 values (μM) MV4-11. The format is cell-based. In outline:
as §1

Assay [6] deals with THP-1 (acute myeloid leukemia, wt FLT3). The experiment in a line: Calcein AM cytotoxicity assay. In kind it is cell-based. Conditions: Homo sapiens, 72 h; THP-1; Calcein AM, three days; read-out: EC50 values (μM) THP-1. In outline:
as §1

For assay [7], the system named is U937 (monocytic leukemia, wt FLT3). The experiment in a line: Calcein AM cytotoxicity assay. In kind it is cell-based. As to conditions: Homo sapiens, U-937, 72 h; U937; Calcein AM, three days; read-out: EC50 values (μM) U937. In outline: as §1
The target of assay [8] is T1, CDK2/Cyclin E (Homo sapiens, UniProt P24941).
T1 construct: made in house; host or cells: Sf9 insect cells, baculoviral infection
The experiment in a line: Kinase inhibition assay with [γ-33P]ATP. As to conditions: histone H1, 15 μM ATP; read-out: IC50 values (μM) CDK2. The format is biochemical. The gist of the method:
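Human CDK2/Cyclin E, expressed in baculovirus-infected Sf9 insect cells and purified on a NiNTA column, was assayed with 1 mg/mL histone H1 substrate, 15 μM ATP plus 0.05 μCi [γ-33P]ATP and test compound in 10 μL of buffer (60 mM HEPES-NaOH pH 7.5, 3 mM MgCl2, 3 mM MnCl2, 3 μM Na-orthovanadate, 1.2 mM DTT, PEG20,000). Reactions were quenched with 5 μL 3% H3PO4, spotted onto P-81 phosphocellulose, washed and dried.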

In assay [9] the target is T2, FLT3 D835 (Homo sapiens, UniProt P36888).
T2 sequence (P36888 1-993 D835Y): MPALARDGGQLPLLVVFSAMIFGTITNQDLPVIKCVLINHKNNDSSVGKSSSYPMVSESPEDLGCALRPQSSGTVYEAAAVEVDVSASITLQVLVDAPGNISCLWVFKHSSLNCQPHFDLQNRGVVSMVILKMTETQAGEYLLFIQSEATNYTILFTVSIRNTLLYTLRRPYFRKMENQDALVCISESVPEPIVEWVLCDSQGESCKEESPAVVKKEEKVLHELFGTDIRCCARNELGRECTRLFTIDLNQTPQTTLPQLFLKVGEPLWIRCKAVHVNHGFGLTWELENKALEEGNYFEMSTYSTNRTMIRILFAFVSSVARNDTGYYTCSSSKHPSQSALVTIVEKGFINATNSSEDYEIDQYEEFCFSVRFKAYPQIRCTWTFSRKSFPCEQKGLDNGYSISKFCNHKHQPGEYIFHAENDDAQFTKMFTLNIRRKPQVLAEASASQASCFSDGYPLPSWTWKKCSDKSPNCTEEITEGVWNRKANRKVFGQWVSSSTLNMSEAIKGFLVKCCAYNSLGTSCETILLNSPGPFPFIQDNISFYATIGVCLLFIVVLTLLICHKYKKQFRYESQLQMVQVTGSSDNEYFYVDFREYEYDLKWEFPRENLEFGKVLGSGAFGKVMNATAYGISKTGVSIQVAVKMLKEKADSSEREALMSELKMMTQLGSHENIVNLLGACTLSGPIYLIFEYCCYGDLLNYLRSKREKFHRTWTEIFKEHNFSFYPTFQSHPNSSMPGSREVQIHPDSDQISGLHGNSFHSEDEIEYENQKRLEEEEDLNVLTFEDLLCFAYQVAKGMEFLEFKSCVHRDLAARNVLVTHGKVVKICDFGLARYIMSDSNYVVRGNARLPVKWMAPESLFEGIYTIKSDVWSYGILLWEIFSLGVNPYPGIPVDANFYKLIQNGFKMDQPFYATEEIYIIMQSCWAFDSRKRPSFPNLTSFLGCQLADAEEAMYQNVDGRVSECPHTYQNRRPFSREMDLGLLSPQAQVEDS
Briefly: Kinase inhibition assay with [γ-33P]ATP. The format is biochemical. As to conditions: AGLT substrate, 1 μM ATP.

The term EC50 denotes the concentration needed to bring the measured effect to its halfway point. Broadly, the IC50 is the point on the concentration scale where inhibition reaches its midpoint. Regarding `NC1CCC(Nc2nc(Nc3ccc(N4CCOCC4)cc3)c3ncn(C4CCCC4)c3n2)CC1` (stereo not drawn) [Compound 1], the EC50 in [1] is 0.008 µM; in [2] it was 1.19 µM; in assay [3], 0.32 µM; in assay [4] it was 0.004 µM; in assay [5], 0.001 µM; in assay [6], 1.01 µM. For the same molecule, the EC50 in assay [7] is 2.13 µM. Besides, the IC50 in assay [8] is 0.017 µM; in assay [9] it was 0.007 µM.
For the molecule `NC1CCC(Nc2nc(Nc3ccc(CN4CCNCC4)cc3)c3ncn(C4CCCC4)c3n2)CC1` (stereo not drawn) [Compound 2], the EC50 is 0.023 µM in [1]; 1.57 µM in assay [2]; 0.52 µM in [3]; 0.015 µM in assay [4]; 0.01 µM in assay [5]; 2.28 µM in [6]. The half-maximal effective concentration (EC50) in assay [7] was 1.8 µM. Further, the IC50 worked out at 0.008 µM in [8] and 0.003 µM in assay [9].
On to `CN1CCN(C(=O)c2ccc(Nc3nc(NC4CCC(N)CC4)nc4c3ncn4C3CCCC3)cc2)CC1` (stereo not drawn) [Compound 3], for which the half-maximal effective concentration (EC50) is 0.015 µM in assay [1]; 1.23 µM in [2]; 0.273 µM in assay [3]; 0.02 µM in assay [4]; 0.018 µM in [5]; 3.02 µM in assay [6]. Besides, the EC50 in [7] was 3.66 µM. Besides, the IC50 in assay [8] was found to be 0.004 µM; in assay [9], 0.003 µM.
For the molecule `CN1CC2(C1)CN(c1ccc(Nc3nc(NC4CCC(O)CC4)nc4c3ncn4C3CCCC3)cc1)C2` (stereo not drawn) [Compound 7], the IC50 in [8] was 0.006 µM; in [9], 0.011 µM.
Turning to `NCCNc1nc(Nc2ccc(CN3CCNCC3)cc2)c2ncn(C3CCCC3)c2n1` [Compound 14], the EC50 in assay [1] is 0.054 µM; in assay [2] it was 1.56 µM; in assay [3] it was 1.52 µM; in [4], 0.025 µM; in [5], 0.083 µM; in assay [6], 1.86 µM. In addition, the EC50 in assay [7] was 1.45 µM. The IC50 in assay [8] turned out to be 0.004 µM; in assay [9] it was 0.01 µM.
In the case of `CN1CCN(C(=O)c2ccc(Nc3nc(NCCCCN)nc4c3ncn4C3CCCC3)cc2)CC1` [Compound 27], the EC50 in [1] was 0.053 µM; in [2] it was 0.57 µM; in assay [3] it was 0.265 µM; in assay [4], 0.019 µM; in assay [5], 0.024 µM; in assay [6] it was 0.624 µM. In addition, the EC50 in assay [7] was 0.794 µM. Also, the values for the IC50 in assay [8] and in assay [9] were 0.002 µM and 0.011 µM, respectively.
`NCCCCNc1nc(Nc2ccc(N3CC4(COC4)C3)nc2)c2ncn(C3CCCC3)c2n1` [Compound 28]: the EC50 in assay [1] is 0.013 µM; in assay [2], 1.05 µM; in [3], 0.925 µM; in assay [4], 0.004 µM; in assay [5] it was 0.001 µM; in assay [6] it was 0.514 µM. Besides, in assay [7], the EC50 is 0.605 µM. The IC50 came out at 0.028 µM in assay [8] and 0.002 µM in [9].
As for `CN(C)CCNc1nc(Nc2ccc(CN3CCOCC3)nc2)c2ncn(C3CCCC3)c2n1` [Compound 172], the EC50 in [1] is 0.014 µM; in assay [2], 1.16 µM; in assay [3], 0.43 µM; in assay [4], 0.017 µM; in [5], 0.003 µM; in assay [6], 1.52 µM. For the same molecule, in assay [7], the EC50 is 1.48 µM. Also, the IC50 was 0.016 µM in assay [8] and 0.005 µM in assay [9].
In the case of `CN(C)CCCNc1nc(Nc2ccc(C(=O)N3CCOCC3)nc2)c2ncn(C3CCCC3)c2n1` [Compound 179], the EC50 was 0.225 µM in assay [1]; 2.21 µM in assay [3]; 0.078 µM in assay [4]; 0.013 µM in assay [5]; over 4 µM in [6]. Besides, the IC50 in [8] amounted to 0.04 µM; in assay [9], 0.023 µM.
Regarding `NC1CCC(Nc2nc(Nc3ccc(N4CCCC4)cc3)c3ncn(C4CCCC4)c3n2)CC1` (stereo not drawn) [Compound 263], the EC50 in assay [1] is 0.03 µM; in assay [2], 1.27 µM; in [3] it was 1.33 µM; in [4], 0.024 µM; in [5] it was 0.018 µM; in [6], 3.11 µM. Besides, the concentration giving a half-maximal response (EC50) in assay [7] was 3.17 µM. Further, the IC50 in assay [8] worked out at 0.031 µM; in [9] it was 0.011 µM.
For the molecule `NC1CCC(Nc2nc(Nc3ccc(CN4CCOCC4)cc3)c3ncn(C4CCCC4)c3n2)CC1` (stereo not drawn) [Compound 264], the IC50 in assay [8] is 0.007 µM; in assay [9] it was 0.009 µM.
Regarding `NCCCCNc1nc(Nc2ccc(N3CCOCC3)cc2)c2ncn(C3CCCC3)c2n1` [Compound 265], the EC50 in [1] is 0.039 µM; in assay [2] it was 3.74 µM; in assay [3] it was 3.25 µM; in assay [4], 0.016 µM; in assay [5], 0.017 µM; in [6], over 4 µM. In assay [7], the EC50 was over 4 µM. The IC50 in assay [8] was determined as 0.642 µM; in assay [9] it was 0.007 µM.
Regarding `CCN1CCN(c2ccc(Nc3nc(NCCCCN)nc4c3ncn4C3CCCC3)cc2)CC1` [Compound 266], the EC50 in assay [1] was 0.074 µM; in [2] it was 1.43 µM; in assay [3], 2.15 µM; in assay [4] it was 0.014 µM; in assay [5], 0.018 µM; in [6], 2.99 µM. In addition, the EC50 in assay [7] is 3.77 µM. In addition, the IC50 in assay [8] came to 0.586 µM; in [9], 0.003 µM.
For the molecule `NCCCCNc1nc(Nc2ccc(CN3CCOCC3)cc2)c2ncn(C3CCCC3)c2n1` [Compound 270], the EC50 is 1.81 µM in assay [2]; 2.1 µM in assay [3]; 0.014 µM in [4]; 0.029 µM in assay [5]; 1.24 µM in assay [6]; over 4 µM in assay [7]. For the same molecule, the IC50 in assay [8] came out at 0.625 µM; in assay [9], 0.005 µM.
For `NC1CCC(Nc2nc(Nc3ccc(N4CC5(COC5)C4)cc3)c3ncn(C4CCCC4)c3n2)CC1` (stereo not drawn) [Compound 272], the EC50 in assay [1] is 0.022 µM; in assay [2], 1.18 µM; in [3] it was 1.05 µM; in assay [4] it was 0.004 µM; in assay [5] it was 0.003 µM; in assay [6], 0.693 µM. Further, the EC50 in assay [7] is 0.638 µM. In addition, in assay [8], the IC50 stood at 0.025 µM.
